# Measured values from article PMC8922279, “Identification of β-Lactams Active against Mycobacterium tuberculosis by a Consortium of Pharmaceutical Companies and Academic Institutions” (ACS Infectious Diseases, 2022).
# Read-outs that look alike come from different tables or passages of the source.
# Columns and labels:
# [1] = tested on: Mtb H37Rv; test: MIC90 against replicating (R) Mtb H37Rv, with or without clavulanate; type: cell-based, Mycobacterium tuberculosis; details: Table S4
# [2] = tested on: Mtb H37Rv; test: MIC90 against nonreplicating (NR, 4-stress) Mtb H37Rv, with or without clavulanate; type: cell-based, Mycobacterium tuberculosis; details: 4-stress nonreplicating, Table S4
# [3] = tested on: E. coli; test: Microbial spectrum, E. coli; type: cell-based, Escherichia coli; details: clavulanate 4 μg/mL; Table S4
# [4] = tested on: P. aeruginosa; test: Microbial spectrum, P. aeruginosa; type: cell-based, Pseudomonas aeruginosa; details: clavulanate 4 μg/mL; Table S4
# [5] = tested on: S. aureus; test: Microbial spectrum, S. aureus; type: cell-based, Staphylococcus aureus; details: clavulanate 4 μg/mL; Table S4
# [6] = tested on: C. albicans; test: Microbial spectrum, C. albicans; type: cell-based, Candida albicans; details: no clavulanate; Table S4
# [7] = tested on: HepG2 cells; test: Cytotoxicity against HepG2 cells (CellTiter-Glo); type: cell-based, human; details: Table S4
# Procedure: Compounds were tested for cytotoxicity against HepG2 cells as previously described.[48],[69],[70] Briefly, cells were exposed to compounds for 48–72 h, and viability was measured using CellTiter-Glo (Promega).
# [8] = tested on: wild-type Mtb H37Rv; type: in vivo, 129sv DHP-1 knockout mice; details: for Log10 CFU per mouse (lungs), Mean: days 9-15, lungs day 16, untreated day 16 mean 9.1
# [9] = tested on: Caco-2 cells
# [10] = 50 mg/kg sc, uninfected DHP-1 mice
# [11] = female, 129sv DHP-1 knockout, mouse, in vivo
# [12] = in vivo; details: female, CD-1, mouse
# [13] = in vivo; details: DHP-1 knockout, mouse, sc, 50 mg/kg
# [14] = in vivo; details: female, 129sv DHP-1 knockout, mouse, sc
# [15] = physchem; details: simulated gi fluid, pH 6.5, FaSSIF Stability, % remaining
# [16] = physchem; details: simulated gi fluid, pH 1.2
# [17] = in vitro; details: male, CD-1, mouse, plasma, Plasma stability % Remaining
# [18] = in vitro; details: SD, rat, plasma, Plasma stability % Remaining
# [19] = in vitro; details: beagle, dog, plasma
# [20] = in vitro; details: monkey, plasma
# [21] = in vitro; details: human, plasma, Plasma stability % Remaining
# [22] = in vitro; details: human
# [23] = in vitro; details: cynomolgus monkey, plasma, pH 7.4
# [24] = in vitro; details: beagle, dog, plasma, pH 7.4
# [25] = in vitro; details: CD-1, mouse, plasma, pH 7.4, % bound to plasma
# [26] = in vitro; details: SD, rat, plasma, pH 7.4, % bound to plasma
# [27] = in vitro; details: human, plasma, pH 7.4, % bound to plasma
# [28] = tested on: Mtb ΔpanCDΔlysA; type: cell-based, Mycobacterium tuberculosis; details: MIC90 in presence vs absence of 4 μg/mL clavulanate, replicating Mtb
# [29] = In vitro plasma stability, human plasma; details: human, plasma, Plasma stability % Remaining, 37 °C, time point 120 min
# [30] = In vitro plasma stability, SD rat plasma; details: SD, rat, plasma, Plasma stability % Remaining, 37 °C, time point 120 min
# [31] = Stability in simulated gastric fluid (SGF); details: simulated gastric fluid (SGF), pH 1.2
# [32] = In vitro plasma stability, CD-1 mouse plasma; details: male, CD-1, mouse, plasma, Plasma stability % Remaining, Mouse, 37 °C, time point 120 min
# [33] = In vitro plasma stability, beagle dog plasma; details: beagle, dog, plasma
# [34] = Caco-2 permeability / efflux transporter substrate; details: human
# [35] = tested on: Caco-2 cells; test: Caco-2 permeability / efflux transporter substrate; details: Caco-2
# [36] = In vitro plasma stability, cynomolgus monkey plasma; details: monkey, plasma
# [37] = Stability in fasted simulated intestinal fluid (FaSSIF); details: fasted simulated intestinal fluid (FaSSIF), pH 6.5, FaSSIF Stability, % remaining, pH 6.5, room temperature
# [38] = 50 mg/kg sc bid + clavulanate 100 mg/kg po bid
# [39] = Caco-2, pH 7.4, Caco-2 Mean Recovery % A to B
# [40] = Caco-2, pH 7.4, Caco-2 Mean Recovery % B to A
structure (smiles),measurement,setting,value
O=C(O)C1=C(CSc2cccc[n+]2[O-])CS[C@@H]2[C@H](NC(=O)/C(=N\Oc3ccccc3)c3ccco3)C(=O)N12 [TBBL-0000005],Mtb H37Rv R + CLAV (MIC90),[1]; clavulanate 4 μg/mL,2.7 µM
same,Mtb H37Rv R (MIC90),[1]; no clavulanate,2.9 µM
same,Mtb H37Rv NR + CLAV (MIC90),[2]; clavulanate 4 μg/mL,1.5 µM
same,Mtb H37Rv NR (MIC90),[2]; no clavulanate,1.8 µM
same,E.coli R + CLAV (MIC90),[3],> 100 µM
same,P.aeruginosa R + CLAV (MIC90),[4],> 100 µM
same,S.aureus R + CLAV (MIC90),[5],0.8 µM
same,C.albicans R (MIC90),[6],> 100 µM
same,HepG2 LD50,[7],88.7 µM
same,"Log10 CFU per mouse (lungs), Mean",[8]; [38],8.9 Log10 CFU
same,Caco-2 Rank Papp,[9],Low
same,Comments (tolerability),[10],No side effects
same,Tlast,[10],2.0 to 4.0 h
same,Tlast,[11],6.0 h
same,AUC(0-t),"[12]; iv, 5 mg/kg",3330 ng·h/mL
same,Vd,"[12]; iv, 5 mg/kg",0.23 L/kg
same,clearance,"[12]; iv, 5 mg/kg",5 mL/min/kg
same,half-life,"[12]; iv, 5 mg/kg",32.4 min
same,k el,"[12]; iv, 5 mg/kg",0.000356 s⁻¹
same,AUC(0-t),"[12]; po, 25 mg/kg",97 ng·h/mL
same,bioavailability,"[12]; po, 25 mg/kg",0.11%
same,AUC(0-t),[13],18200 ± 7180 ng·h/mL
same,Cmax,[13],26600 ± 10000 ng/mL
same,Tmax,[13],15 to 30 min
same,AUC(0-t),[14]; 50 mg/kg,7920 ng·h/mL
same,Cmax,[14]; 50 mg/kg,4130 ng/mL
same,Tmax,[14]; 50 mg/kg,30 min
same,"remaining at 6 h, 10 μM",[15]; 6h,98.7%
same,"remaining at 24 h, 10 μM",[15]; 24h,98.5%
same,"remaining at 1 h, 10 μM",[16],120%
same,"remaining at 24 h, 10 μM",[16],76.6%
same,"remaining at 2 h, 2 μM",[17],60.6%
same,"remaining at 2 h, 2 μM",[18],35.2%
same,"remaining at 2 h, 2 μM",[19],51.3%
same,"remaining at 2 h, 2 μM",[20],108%
same,"remaining at 2 h, 2 μM",[21],73.7%
same,"Papp A→B at 120 min, 3 μM","[22]; Caco-2, pH 7.4",< 0.33 ×10⁻⁶ cm/s
same,"Papp B→A at 120 min, 3 μM","[22]; Caco-2, pH 7.4",< 0.28 ×10⁻⁶ cm/s
same,"recovery at 120 min, 3 μM",[22]; [39],< 88.9%
same,"recovery at 120 min, 3 μM",[22]; [40],< 89.8%
same,"fraction unbound at 4 h, 2 μM",[23],0.06
same,"fraction unbound at 4 h, 2 μM",[24],0.186
same,"fraction unbound at 4 h, 2 μM",[25],0.06
same,"fraction unbound at 4 h, 2 μM",[26],0.121
same,"fraction unbound at 4 h, 2 μM",[27],0.129
"C[C@@H](O)[C@H]1C(=O)N2C(C(=O)O)=C(S[C@@H]3CN[C@H](C(=O)N(C)C)C3)[C@H](C)[C@H]12 [Meropenem, reference compound]",clavulanate shift of MIC90,[28],~8 fold
same,"Log10 CFU per mouse (lungs), Mean",[8]; [38],7.6 Log10 CFU
same,"Log10 CFU per mouse (lungs), Mean",[8]; 300 mg/kg sc bid + clavulanate 100 mg/kg po bid,7.1 Log10 CFU
same,effect on lung CFU (in words),"[8]; mouse, in vivo",bacteriostatic impact
same,Tlast,[11],1.0 h
same,AUC(0-t),[14]; 50 mg/kg,387 ng·h/mL
same,Cmax,[14]; 50 mg/kg,724 ng/mL
same,Tmax,[14]; 50 mg/kg,30 min
same,AUC(0-t),[14]; 300 mg/kg,2000 ng·h/mL
same,Cmax,[14]; 300 mg/kg,3340 ng/mL
same,Tmax,[14]; 300 mg/kg,30 min
same,"remaining at 2 h, 2 μM",[29],70.6%
same,"remaining at 2 h, 2 μM",[30],57.7%
same,"remaining at 1 h, 10 μM",[31],111%
same,"remaining at 24 h, 10 μM",[31],100%
same,"remaining at 2 h, 2 μM",[32],74.7%
same,"remaining at 2 h, 2 μM",[33],75.2%
same,"Papp A→B at 120 min, 3 μM","[34]; Caco-2, pH 7.4",< 0.26 ×10⁻⁶ cm/s
same,"Papp B→A at 120 min, 3 μM","[34]; Caco-2, pH 7.4",< 0.24 ×10⁻⁶ cm/s
same,"recovery at 120 min, 3 μM",[34]; [39],< 91%
same,"recovery at 120 min, 3 μM",[34]; [40],< 94.2%
same,Caco-2 Rank Papp,[35],Low
same,"remaining at 2 h, 2 μM",[36],99.9%
same,"remaining at 6 h, 10 μM",[37]; 6h,94.1%
same,"remaining at 24 h, 10 μM",[37]; 24h,76.8%
